Earlier results, collected in patent US10773008B2, “Medicated patch for preventing exit site infections during peritoneal dialysis” (Universiti Brunei Darussalam, priority 2016, dated 2020).

Columns and labels:
[1] = topical mupirocin
[2] = in vivo
[3] = not given; remark: listed apart in the source

- bioavailability [1]: 0.24%
- half-life [2]: 20 to 40 min
- log P: 2.45
- PKa [3]: 4.83
Compound: C/C(=C\C(=O)OCCCCCCCCC(=O)O)C[C@@H]1OC[C@H](C[C@@H]2O[C@H]2[C@@H](C)[C@H](C)O)[C@@H](O)[C@H]1O [mupirocin]
